Results as given in PubChem BioAssay AID180 (DTP/NCI, 2004).
Where “and” joins values, the source holds several entries; their conditions need not be identical. Equal values may be shown once.

Tested on: BDF1 mice, Adenocarcinoma 755 s.c., tumor weight T/C
Test: NCI In Vivo Anticancer Drug Screen. Data for tumor model Adenocarcinoma 755 (subcutaneous) in B6D2F1 (BDF1) mice
Conditions: endpoint: mean tumor weight, higher = larger tumour
In short: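 Readout: T/C, i.e. treated-group measurement over vehicle-control measurement. Endpoint is survival or tumor size in tumor-bearing mice given compound.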

[1] = dose: 31.0 mg/kg/injection, schedule: Q01DX011 (ip), vehicle: methylcellulose (MC)
[2] = dose: 62.0 mg/kg/injection, schedule: Q01DX011 (ip), vehicle: methylcellulose (MC)

CC1=CCN2CCC(O)C12 (stereo not drawn)
T/C (dose: 38.0 mg/kg/injection, schedule: Q01DX011 (ip), vehicle: carboxymethylcellulose (CMC)): 95 % of control | T/C (dose: 150.0 mg/kg/injection, schedule: Q01DX011 (ip), vehicle: carboxymethylcellulose (CMC)): 75 % of control

C[C@]1(O)CC[C@H]2[C@@H]3CC[C@@H]4CC(=O)CC[C@]4(C)[C@@]3(F)C(=O)C[C@@]21C
T/C (dose: 200.0 mg/kg/injection, schedule: Q01DX011 (sc), vehicle: steriod suspending solution): 72 % of control | T/C (dose: 400.0 mg/kg/injection, schedule: Q01DX011 (sc), vehicle: steriod suspending solution): 117 % of control

Oc1ccc2ccccc2c1N=Nc1ccc(F)cc1
T/C (dose: 15.0 mg/kg/injection, schedule: Q01DX011 (ip), vehicle: carboxymethylcellulose (CMC)): 70 % of control | T/C (dose: 25.0 mg/kg/injection, schedule: Q01DX011 (ip), vehicle: carboxymethylcellulose (CMC)): 104 % of control | T/C (dose: 31.0 mg/kg/injection, schedule: Q01DX011 (ip), vehicle: carboxymethylcellulose (CMC)): 37 % of control | T/C (dose: 45.0 mg/kg/injection, schedule: Q01DX011 (ip), vehicle: carboxymethylcellulose (CMC)): 33 % of control | T/C (dose: 50.0 mg/kg/injection, schedule: Q01DX011 (ip), vehicle: carboxymethylcellulose (CMC)): 30 % of control | T/C (dose: 50.0 mg/kg/injection, schedule: Q01DX011 (ip), vehicle: saline): 38 % of control | T/C (dose: 62.0 mg/kg/injection, schedule: Q01DX011 (ip), vehicle: carboxymethylcellulose (CMC)): 46 % of control | T/C (dose: 100.0 mg/kg/injection, schedule: Q01DX011 (ip), vehicle: carboxymethylcellulose (CMC)): 27 % of control | T/C (dose: 100.0 mg/kg/injection, schedule: Q01DX011 (ip), vehicle: saline): 12 % of control | T/C (dose: 200.0 mg/kg/injection, schedule: Q01DX011 (ip), vehicle: saline): 22 % of control | T/C (dose: 224.0 mg/kg/injection, schedule: Q01DX011 (ip), vehicle: carboxymethylcellulose (CMC)): 9 % of control | T/C (dose: 400.0 mg/kg/injection, schedule: Q01DX011 (ip), vehicle: carboxymethylcellulose (CMC)): 12 % of control and 15 % of control | T/C (dose: 400.0 mg/kg/injection, schedule: Q01DX011 (ip), vehicle: saline): 15 % of control | T/C (dose: 450.0 mg/kg/injection, schedule: Q01DX011 (ip), vehicle: carboxymethylcellulose (CMC)): 17 % of control | T/C (dose: 600.0 mg/kg/injection, schedule: Q01DX011 (ip), vehicle: saline): 14 % of control | T/C (dose: 800.0 mg/kg/injection, schedule: Q01DX011 (ip), vehicle: carboxymethylcellulose (CMC)): 21 % of control | T/C (dose: 1600.0 mg/kg/injection, schedule: Q01DX011 (ip), vehicle: carboxymethylcellulose (CMC)): 8 % of control

COc1ncnc2nc[nH]c12
T/C (dose: 62.0 mg/kg/injection, schedule: Q01DX011 (ip), vehicle: other): 107 % of control | T/C (dose: 125.0 mg/kg/injection, schedule: Q01DX011 (ip), vehicle: other): 90 % of control | T/C (dose: 250.0 mg/kg/injection, schedule: Q01DX011 (ip), vehicle: other): 44 % of control

Cn1cnc([N+](=O)[O-])c1Sc1nc(N)nc2c1ncn2C1OC(CO)C(O)C1O (stereo not drawn)
T/C (dose: 0.03 mg/kg/injection, schedule: Q01DX011 (ip), vehicle: methylcellulose (MC)): 89 % of control | T/C (dose: 0.06 mg/kg/injection, schedule: Q01DX011 (ip), vehicle: methylcellulose (MC)): 76 % of control | T/C (dose: 0.11 mg/kg/injection, schedule: Q01DX011 (ip), vehicle: methylcellulose (MC)): 14 % of control | T/C (dose: 0.22 mg/kg/injection, schedule: Q01DX011 (ip), vehicle: methylcellulose (MC)): 1 % of control and 2 % of control | T/C (dose: 0.44 mg/kg/injection, schedule: Q01DX011 (ip), vehicle: methylcellulose (MC)): 2 % of control | T/C (dose: 0.88 mg/kg/injection, schedule: Q01DX011 (ip), vehicle: methylcellulose (MC)): 1 % of control | T/C (dose: 1.75 mg/kg/injection, schedule: Q01DX011 (ip), vehicle: methylcellulose (MC)): 2 % of control

Nc1nc2c(ccn2Cc2ccccc2)c(=O)[nH]1
T/C (dose: 30.0 mg/kg/injection, schedule: Q01DX011 (ip), vehicle: carboxymethylcellulose (CMC)): 92 % of control | T/C (dose: 120.0 mg/kg/injection, schedule: Q01DX011 (ip), vehicle: carboxymethylcellulose (CMC)): 106 % of control

Nc1nc(N)c(N)c(Nc2ccc(Br)cc2)n1
T/C (dose: 15.0 mg/kg/injection, schedule: Q01DX011 (ip), vehicle: saline): 91 % of control | T/C (dose: 31.0 mg/kg/injection, schedule: Q01DX011 (ip), vehicle: saline): 32 % of control

CSc1ncc(Br)c(Nc2ccc(C)cc2)n1
T/C (dose: 15.0 mg/kg/injection, schedule: Q01DX011 (ip), vehicle: methylcellulose (MC)): 75 % of control | T/C [1]: 74 % of control | T/C [2]: 75 % of control | T/C (dose: 125.0 mg/kg/injection, schedule: Q01DX011 (ip), vehicle: methylcellulose (MC)): 92 % of control | T/C (dose: 250.0 mg/kg/injection, schedule: Q01DX011 (ip), vehicle: methylcellulose (MC)): 68 % of control

CCN(CC)CCNc1ccc(C)c2sc3ccccc3c(=O)c12
T/C (dose: 12.5 mg/kg/injection, schedule: Q01DX011 (ip), vehicle: methylcellulose (MC)): 73 % of control | T/C (dose: 12.93 mg/kg/injection, schedule: Q01DX011 (ip), vehicle: carboxymethylcellulose (CMC)): 98 % of control | T/C (dose: 25.0 mg/kg/injection, schedule: Q01DX011 (ip), vehicle: methylcellulose (MC)): 51 % of control | T/C (dose: 25.87 mg/kg/injection, schedule: Q01DX011 (ip), vehicle: carboxymethylcellulose (CMC)): 117 % of control | T/C (dose: 25.88 mg/kg/injection, schedule: Q01DX011 (ip), vehicle: carboxymethylcellulose (CMC)): 73 % of control | T/C (dose: 32.35 mg/kg/injection, schedule: Q01DX011 (ip), vehicle: carboxymethylcellulose (CMC)): 75 % of control | T/C (dose: 43.13 mg/kg/injection, schedule: Q01DX011 (ip), vehicle: carboxymethylcellulose (CMC)): 49 % of control | T/C (dose: 50.0 mg/kg/injection, schedule: Q01DX011 (ip), vehicle: methylcellulose (MC)): 35 % of control | T/C (dose: 51.75 mg/kg/injection, schedule: Q01DX011 (ip), vehicle: carboxymethylcellulose (CMC)): 44 % of control and 46 % of control and 59 % of control | T/C (dose: 59.1 mg/kg/injection, schedule: Q01DX011 (ip), vehicle: carboxymethylcellulose (CMC)): 15 % of control | T/C (dose: 64.7 mg/kg/injection, schedule: Q01DX011 (ip), vehicle: carboxymethylcellulose (CMC)): 23 % of control | T/C (dose: 82.8 mg/kg/injection, schedule: Q01DX011 (ip), vehicle: carboxymethylcellulose (CMC)): 7 % of control | T/C (dose: 100.0 mg/kg/injection, schedule: Q01DX011 (ip), vehicle: methylcellulose (MC)): 1 % of control | T/C (dose: 103.5 mg/kg/injection, schedule: Q01DX011 (ip), vehicle: carboxymethylcellulose (CMC)): 5 % of control | T/C (dose: 1617.5 micrograms/kg/injection, schedule: Q01DX011 (ip), vehicle: carboxymethylcellulose (CMC)): 70 % of control | T/C (dose: 3235.0 micrograms/kg/injection, schedule: Q01DX011 (ip), vehicle: carboxymethylcellulose (CMC)): 38 % of control | T/C (dose: 6470.0 micrograms/kg/injection, schedule: Q01DX011 (ip), vehicle: carboxymethylcellulose (CMC)): 15 % of control | T/C (dose: 8087.0 micrograms/kg/injection, schedule: Q01DX011 (ip), vehicle: carboxymethylcellulose (CMC)): 72 % of control

Cc1cnc(SCc2ccccc2Cl)nc1SCc1ccccc1Cl
T/C [1]: 81 % of control | T/C [2]: 65 % of control

CCCCOP(=S)(N1CC1)N1CC1
T/C (dose: 0.19 mg/kg/injection, schedule: Q01DX011 (ip), vehicle: other): 44 % of control | T/C (dose: 0.19 mg/kg/injection, schedule: Q01DX011 (ip), vehicle: saline): 102 % of control | T/C (dose: 0.37 mg/kg/injection, schedule: Q01DX011 (ip), vehicle: other): 38 % of control | T/C (dose: 0.37 mg/kg/injection, schedule: Q01DX011 (ip), vehicle: saline): 97 % of control | T/C (dose: 0.75 mg/kg/injection, schedule: Q01DX011 (ip), vehicle: carboxymethylcellulose (CMC)): 73 % of control | T/C (dose: 0.75 mg/kg/injection, schedule: Q01DX011 (ip), vehicle: other): 26 % of control | T/C (dose: 0.75 mg/kg/injection, schedule: Q01DX011 (ip), vehicle: saline): 113 % of control | T/C (dose: 1.5 mg/kg/injection, schedule: Q01DX011 (ip), vehicle: carboxymethylcellulose (CMC)): 78 % of control | T/C (dose: 1.5 mg/kg/injection, schedule: Q01DX011 (ip), vehicle: other): 14 % of control | T/C (dose: 1.5 mg/kg/injection, schedule: Q01DX011 (ip), vehicle: saline): 90 % of control | T/C (dose: 3.0 mg/kg/injection, schedule: Q01DX011 (ip), vehicle: carboxymethylcellulose (CMC)): 23 % of control | T/C (dose: 3.0 mg/kg/injection, schedule: Q01DX011 (ip), vehicle: other): 7 % of control | T/C (dose: 3.0 mg/kg/injection, schedule: Q01DX011 (ip), vehicle: saline): 42 % of control | T/C (dose: 3.0 mg/kg/injection, schedule: Q## X000 (ip), vehicle: saline): 460 % of control | T/C (dose: 6.0 mg/kg/injection, schedule: Q## X000 (ip), vehicle: saline): 153 % of control | T/C (dose: 12.0 mg/kg/injection, schedule: Q## X000 (ip), vehicle: saline): 23 % of control

O=C1Nc2cc3c(c4cccc1c24)CCCC3
T/C (dose: 1.25 mg/kg/injection, schedule: Q01DX011 (ip), vehicle: carboxymethylcellulose (CMC)): 111 % of control | T/C (dose: 5.0 mg/kg/injection, schedule: Q01DX011 (ip), vehicle: carboxymethylcellulose (CMC)): 95 % of control
